Assay results from the NIST ThermoML archive (doi:10.1016/j.tca.2018.11.018).

Experiment: xn = mol fraction of the nth substance listed
Settings: 100 kPa, Liquid; for viscosity: Falling or rolling sphere viscometry; for mass density: Vibrating tube method

CCCC[N+](CC)(CC)CC.[Br-] [butyltriethyl ammonium bromide] + O
Settings	mass density [kg/m3]	viscosity [mPa·s]
298.15 K, x1 = 0.02	1030.2	1.581
298.15 K, x1 = 0.04	1057.3	2.599
298.15 K, x1 = 0.06	1078.8	4.044
298.15 K, x1 = 0.08	1095.3	5.87
298.15 K, x1 = 0.105	1111	10.02
298.15 K, x1 = 0.13	1122.8	14.11
298.15 K, x1 = 0.16	1133.5	21.36
298.15 K, x1 = 0.189	1140.9	30.66
298.15 K, x1 = 0.22	1147.3	43.63
298.15 K, x1 = 0.253	1152.5	63.73
303.15 K, x1 = 0.02	1028.2	1.381
303.15 K, x1 = 0.04	1054.7	2.216
303.15 K, x1 = 0.06	1075.6	3.393
303.15 K, x1 = 0.08	1091.9	4.835
303.15 K, x1 = 0.105	1107.4	8.222
303.15 K, x1 = 0.13	1119.1	11.45
303.15 K, x1 = 0.16	1129.8	16.85
303.15 K, x1 = 0.189	1137.3	23.62
303.15 K, x1 = 0.22	1143.7	33
303.15 K, x1 = 0.253	1148.9	47.05
308.15 K, x1 = 0.02	1026	1.223
308.15 K, x1 = 0.04	1051.9	1.921
308.15 K, x1 = 0.06	1072.5	2.885
308.15 K, x1 = 0.08	1088.4	4.054
308.15 K, x1 = 0.105	1103.8	6.767
308.15 K, x1 = 0.13	1115.4	9.328
308.15 K, x1 = 0.16	1126.1	13.49
308.15 K, x1 = 0.189	1133.6	18.55
308.15 K, x1 = 0.22	1140.1	25.39
308.15 K, x1 = 0.253	1145.4	35.52
313.15 K, x1 = 0.02	1023.6	1.091
313.15 K, x1 = 0.04	1049.1	1.682
313.15 K, x1 = 0.06	1069.2	2.488
313.15 K, x1 = 0.08	1084.9	3.441
313.15 K, x1 = 0.105	1100.2	5.583
313.15 K, x1 = 0.13	1111.7	7.649
313.15 K, x1 = 0.16	1122.4	10.91
313.15 K, x1 = 0.189	1129.9	14.79
313.15 K, x1 = 0.22	1136.5	19.92
313.15 K, x1 = 0.253	1141.9	27.22
318.15 K, x1 = 0.02	1021	0.981
318.15 K, x1 = 0.04	1046.1	1.485
318.15 K, x1 = 0.06	1065.9	2.164
318.15 K, x1 = 0.08	1081.4	2.942
318.15 K, x1 = 0.105	1096.5	4.648
318.15 K, x1 = 0.13	1108	6.334
318.15 K, x1 = 0.16	1118.7	8.969
318.15 K, x1 = 0.189	1126.2	12.07
318.15 K, x1 = 0.22	1132.8	15.94
318.15 K, x1 = 0.253	1138.3	21.51
323.15 K, x1 = 0.02	–	0.889
323.15 K, x1 = 0.04	–	1.324
323.15 K, x1 = 0.06	–	1.906
323.15 K, x1 = 0.08	–	2.567
323.15 K, x1 = 0.105	–	3.92
323.15 K, x1 = 0.13	–	5.293
323.15 K, x1 = 0.16	–	7.453
323.15 K, x1 = 0.189	–	9.912
323.15 K, x1 = 0.22	–	12.97
323.15 K, x1 = 0.253	–	17.19
